Read-outs that look alike come from different tables or passages of the source.
Biological target: T1, Androgen Receptor (Homo sapiens, UniProt P10275)
T1 construct: endogenous in cells; host or cells: VCaP cells
T1 sequence (P10275 1-920): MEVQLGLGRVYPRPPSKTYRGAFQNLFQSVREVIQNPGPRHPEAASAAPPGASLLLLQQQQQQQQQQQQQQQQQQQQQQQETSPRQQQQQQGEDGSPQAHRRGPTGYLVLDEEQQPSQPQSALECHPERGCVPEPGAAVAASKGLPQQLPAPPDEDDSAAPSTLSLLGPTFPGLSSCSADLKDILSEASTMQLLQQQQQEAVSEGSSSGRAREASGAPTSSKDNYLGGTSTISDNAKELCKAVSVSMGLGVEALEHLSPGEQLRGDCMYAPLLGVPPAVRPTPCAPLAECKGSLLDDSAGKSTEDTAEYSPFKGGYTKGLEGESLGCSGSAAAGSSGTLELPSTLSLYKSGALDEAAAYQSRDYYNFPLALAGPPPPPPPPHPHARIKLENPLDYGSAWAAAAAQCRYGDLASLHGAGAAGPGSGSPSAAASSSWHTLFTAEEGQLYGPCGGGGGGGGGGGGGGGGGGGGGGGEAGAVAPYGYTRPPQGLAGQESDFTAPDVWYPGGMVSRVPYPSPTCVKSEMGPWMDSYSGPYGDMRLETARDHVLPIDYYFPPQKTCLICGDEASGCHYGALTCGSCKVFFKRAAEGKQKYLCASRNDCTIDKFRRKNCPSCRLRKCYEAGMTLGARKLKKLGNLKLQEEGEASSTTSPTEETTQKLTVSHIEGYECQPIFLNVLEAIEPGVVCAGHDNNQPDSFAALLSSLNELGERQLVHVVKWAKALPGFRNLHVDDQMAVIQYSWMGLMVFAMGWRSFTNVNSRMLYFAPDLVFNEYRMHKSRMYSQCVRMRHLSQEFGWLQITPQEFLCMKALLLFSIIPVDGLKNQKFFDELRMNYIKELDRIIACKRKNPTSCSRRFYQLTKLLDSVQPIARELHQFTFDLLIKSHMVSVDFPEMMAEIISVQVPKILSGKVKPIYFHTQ
Assay: Androgen Receptor ELISA assay (PathScan AR ELISA) in VCaP cells: AR degradation, Dmax and DC50
Type: cell-based
Outline: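 VCaP cells, 30,000/well, grown ≥3 days in phenol red-free RPMI with 5% charcoal-stripped FBS; compound added in 0.1% DMSO with 0.1 nM R1881, 7 half-log doses, 24 h. Lysate AR quantified by PathScan sandwich ELISA, HRP/TMB read at 450 nm, giving DC50 and Dmax.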

[1] = VCaP cells; Table 36; read-out: VCaP DC50
[2] = VCaP, VCaP cells; Table 36; read-out: VCaP Dmax (%)
[3] = read-out: VCaP DC50; VCaP cells; Table 36

Row | SMILES | DC50 [1] [nM] | Dmax [2] [%] | Dmax (VCaP, read-out: VCaP Dmax (%)) [%] | DC50 [3] [nM]
1 | Cc1ncsc1-c1ccc([C@H](C)NC(=O)[C@@H]2C[C@@H](O)CN2C(=O)[C@@H](NC(=O)COCCCCCC2(c3ccc(C(=O)N[C@H]4C(C)(C)[C@H](Oc5ccc(C#N)c(Cl)c5)C4(C)C)cc3)COC2)C(C)(C)C)cc1 [Example 685, (2S,4R)-1-((S)-2-(2-((5-(3-(4-(((1r,3r)-3-(3-chloro-4-cyanophenoxy)-2,2,4,4-tetramethylcyclobutyl)carbamoyl)phenyl)oxetan-3-yl)pentyl)oxy)acetamido)-3,3-dimethylbutanoyl)-4-hydroxy-N-((S)-1-(4-(4-methylthiazol-5-yl)phenyl)ethyl)pyrrolidine-2-carboxamide] | < 50 | > 71 | – | –
2 | Cc1ncsc1-c1ccc([C@H](C)NC(=O)[C@@H]2C[C@@H](O)CN2C(=O)[C@@H](NC(=O)CN2CCN(CC3(CNc4ccc(C(=O)N[C@H]5C(C)(C)[C@H](Oc6ccc(C#N)c(C(F)(F)F)c6)C5(C)C)cc4)COC3)CC2)C(C)(C)C)cc1 [Example 686, (2S,4R)-1-((S)-2-(2-(4-((3-(((4-(((1r,3r)-3-(4-cyano-3-(trifluoromethyl)phenoxy)-2,2,4,4-tetramethylcyclobutyl)carbamoyl)phenyl)amino)methyl)oxetan-3-yl)methyl)piperazin-1-yl)acetamido)-3,3-dimethylbutanoyl)-4-hydroxy-N-((S)-1-(4-(4-methylthiazol-5-yl)phenyl)ethyl)pyrrolidine-2-carboxamide] | – | – | 26 to 50 | < 50
3 | Cc1ncsc1-c1ccc([C@H](C)NC(=O)C2C[C@@H](O)CN2C(=O)C(NC(=O)COCC(F)(F)C(F)(F)C(F)(F)COc2ccc(C(=O)N[C@H]3C(C)(C)[C@H](Oc4ccc(C#N)c(Cl)c4)C3(C)C)cc2)C(C)(C)C)cc1 (stereo partly drawn) [Example 688, (2S,4R)-1-((S)-2-(2-((5-(4-(((1r,3r)-3-(3-chloro-4-cyanophenoxy)-2,2,4,4-tetramethylcyclobutyl)carbamoyl)phenoxy)-2,2,3,3,4,4-hexafluoropentyl)oxy)acetamido)-3,3-diemthylbutanoyl)-4-hydroxy-N-((S)-1-(4-(4-methylthiazol-5-yl)phenyl)ethyl)pyrrolidine-2-carboxamide] | – | – | > 71 | < 50
4 | Cc1ncsc1-c1ccc([C@H](C)NC(=O)[C@@H]2C[C@@H](O)CN2C(=O)[C@@H](NC(=O)COCCN2CCN(c3cnc(C(=O)N[C@H]4C(C)(C)[C@H](Oc5ccc(C#N)c(C(F)(F)F)c5)C4(C)C)cn3)CC2)C(C)(C)C)cc1 [Example 689, N-((1r,3r)-3-(4-cyano-3-(trifluoromethyl)phenoxy)-2,2,4,4-tetramethylcyclobutyl)-5-(4-(2-(2-(((S)-1-((2S,4R)-4-hydroxy-2-(((S)-1-(4-(4-methylthiazol-5-yl)phenyl)ethyl)carbam-oyl)pyrrolidin-1-yl)-3,3-dimethyl-1-oxobutan-2-yl)amino)-2-oxoethoxy)ethyl)pipera-zin-1-yl)pyrazine-2-carboxamide] | < 50 | > 71 | – | –
5 | Cc1ncsc1-c1ccc([C@H](C)NC(=O)[C@@H]2C[C@@H](O)CN2C(=O)[C@@H](NC(=O)CN2CCC(O[C@H]3C[C@H](Nc4ccc(C(=O)N[C@H]5C(C)(C)[C@H](Oc6ccc(C#N)c(Cl)c6)C5(C)C)cn4)C3)CC2)C(C)(C)C)cc1 [Example 690, N-((1r,3R)-3-(3-chloro-4-cyanophenoxy)-2,2,4,4-tetramethylcyclobutyl)-6-(((1S,3R)-3-((1-(2-(((S)-1-((2S,4R)-4-hydroxy-2-(((S)-1-(4-(4-methylthiazol-5-yl)phenyl)ethyl)carbam-oyl)pyrrolidin-1-yl)-3,3-dimethyl-1-oxobutan-2-yl)amino)-2-oxoethyl)piperidin-4-yl)oxy)cyclobutyl)amino) nicotinamide] | < 50 | – | > 71 | –
6 | Cc1ncsc1-c1ccc([C@H](C)NC(=O)[C@@H]2C[C@@H](O)CN2C(=O)[C@H](c2ncc(CCCCCNc3ccc(C(=O)N[C@H]4C(C)(C)[C@H](Oc5ccc(C#N)c(Cl)c5)C4(C)C)nc3)n2C)C(C)C)cc1 [Example 692, N-((1r,3r)-3-(3-chloro-4-cyanophenoxy)-2,2,4,4-tetramethylcyclobutyl)-5-((5-(2-((S)-1-((2S,4R)-4-hydroxy-2-(((S)-1-(4-(4-methylthiazol-5-yl)phenyl)ethyl)carbam-oyl)pyrrolidin-1-yl)-3-methyl-1-oxobutan-2-yl)-1-methyl-1H-imidazol-5-yl)pentyl)amino)picolin-amide] | > 501 | < 25 | – | –

The next lines start with results.

Row | DC50 [1] [nM] | Dmax [2] [%] | SMILES | Dmax (VCaP, read-out: VCaP Dmax (%)) [%] | DC50 [3] [nM]
7 | < 50 | > 71 | Cc1nc(O[C@H]2C(C)(C)[C@H](NC(=O)c3ccc(N4CCN(CCOCC(=O)N[C@H](C(=O)N5C[C@H](O)C[C@H]5C(=O)N[C@@H](C)c5ccc(-c6scnc6C)cc5)C(C)(C)C)CC4)nc3)C2(C)C)ccc1C#N [Example 682, N-((1r,3r)-3-((5-cyano-6-methylpyridin-2-yl)oxy)-2,2,4,4-tetramethylcyclobutyl)-6-(4-(2-(2-(((S)-1-((2S,4R)-4-hydroxy-2-(((S)-1-(4-(4-methylthiazol-5-yl)phenyl)ethyl)carbam-oyl)pyrrolidin-1-yl)-3,3-dimethyl-1-oxobutan-2-yl)amino)-2-oxoethoxy)ethyl)pipera-zin-1-yl)nicotinamdie] | – | –
8 | > 501 | 26 to 50 | Cc1ncsc1-c1ccc([C@H](C)NC(=O)[C@@H]2C[C@@H](O)CN2C(=O)[C@H](C(C)C)N(C)C(=O)CN2CCN(CCOc3ccc(C(=O)N[C@H]4C(C)(C)[C@H](Oc5ccc(C#N)c(Cl)c5)C4(C)C)cc3)CC2)cc1 [Example 683, (2S,4R)-1-(N-(2-(4-(2-(4-(((1r,3r)-3-(3-chloro-4 cyanophenoxy)-2,2,4,4-tetramethylcyclobutyl)carbamoyl)phenoxy)eth-yl)piperazin-1-yl)acetayl)-N-methyl-L-valyl)-4-hydroxy-N-((S)-1-(4-(4-methylthiazol-5-yl)phenyl)ethyl)pyrrolidine-2-carboxamide] | – | –
9 | < 50 | 51 to 70 | Cc1ncsc1-c1ccc([C@H](C)NC(=O)[C@@H]2C[C@@H](O)CN2C(=O)[C@@H](NC(=O)COCCN2CCN(c3ccc(C(=O)N[C@H]4C(C)(C)[C@H](Oc5ccc(C#N)c(C(F)(F)F)c5)C4(C)C)nn3)CC2)C(C)(C)C)cc1 [Example 684, N-((1r,3r)-3-(4-cyano-3-(trifluoromethyl)phenoxy)-2,2,4,4-tetramethylcyclobutyl)-6-(4-(2-(2-(((S)-1-((2S,4R)-4-hydroxy-2-(((S)-1-(4-(4-methylthiazol-5-yl)phenyl)ethyl)carbam-oyl)pyrrolidin-1-yl)-3,3-dimethyl-1-oxobutan-2-yl)amino)-2-oxoethoxy)ethyl)pipera-zin-1-yl)pyridazine-3-carboxamide] | – | –
10 | 51 to 500 | 26 to 50 | Cc1ncsc1-c1ccc([C@H](C)NC(=O)[C@@H]2C[C@@H](O)CN2C(=O)[C@@H](NC(=O)CCCCC(CCCc2ccc(C(=O)N[C@H]3C(C)(C)[C@H](Oc4ccc(C#N)c(Cl)c4)C3(C)C)nc2)N2CCN(C)CC2)C(C)(C)C)cc1 (stereo partly drawn) [Example 687, N-((1R,3R)-3-(3-chloro-4-cyanophenoxy)-2,2,4,4-tetramethylcyclobutyl)-5-(9-(((S)-1-((2S,4R)-4-hydroxy-2-(((S)-1-(4-(4-methylthiazol-5-yl)phenyl)ethyl)carbam-oyl)pyrrolidin-1-yl)-3,3-dimethyl-1-oxobutan-2-yl)amino)-4-(4-methylpiperazin-1-yl)-9-oxononyl)picolinamide] | – | –
11 | > 501 | < 25 | Cc1ncsc1-c1ccc([C@H](C)NC(=O)[C@@H]2C[C@@H](O)CN2C(=O)[C@@H](c2ncc(CCCCCNc3ccc(C(=O)N[C@H]4C(C)(C)[C@H](Oc5ccc(C#N)c(Cl)c5)C4(C)C)nc3)n2C)C(C)C)cc1 [Example 691, N-((1r,3r)-3-(3-chloro-4-cyanophenoxy)-2,2,4,4-tetramethylcyclobutyl)-5-((5-(2-((R)-1-((2S,4R)-4-hydroxy-2-(((S)-1-(4-(4-methylthiazol-5-yl)phenyl)ethyl)carbam-oyl)pyrrolidin-1-yl)-3-methyl-1-oxobutan-2-yl)-1-methyl-1H-imidazol-5-yl)pentyl)amino)picolin-amide] | – | –

From patent US11427548B2 (Arvinas Operations, Inc., priority 2015, dated 2022)
